The values below come from patent US4383114A, “Adenosine deaminase resistant antiviral purine arabinonucleosides” (priority 1981, dated 1983).

≈ marks a conversion by molar mass, not a printed value. Where “and” joins values, the source holds several entries; their conditions need not be identical. Equal entries are not always repeated.

The test system of data set [1] is calf intestinal mucosa adenosine deaminase (Sigma Chemical Company). In words: adenosine deaminase activity on Ara-A, Cyclaradine and Aristeromycin (Example 14). The conditions noted are these: 1×10^-4 M, pH 7.5, 17.75 units/ml enzyme. The format is in vitro ADME. An excerpt: The deaminated products were further identified by thin-layer chromatography using authentic samples for reference.

The test system of another data set is HSV and VV. In words: organism not typed. The format is cell-based.
In data set [2] the test system is calf intestinal adenosine deaminase (type III, Sigma). As to the kind of experiment: resistance to deamination by adenosine deaminase (Example 11). Conditions: for deamination by adenosine deaminase: conditions under which ara-A is completely deaminated.
Data set [3] relates to adenosine deaminase. In words: inhibition of enzymatic deamination of ara-A or adenosine. Format: biochemical, calf. Conditions: substrates ara-A or adenosine.
A short description of data set [4]: cytotoxicity, growing P-388 mouse lymphoid leukemia cells in presence of drug. The conditions noted are these: p-388 cells.
The test system of data set [5] is herpes simplex virus (HSV) type 1 (strain HF). The format is cell-based, herpes simplex virus type 1.
In data set [6] the test system is vaccinia virus (VV) (Strain Lederle Chorioallantoic). As to the kind of experiment: microbe, parasite or virus in culture. The format is cell-based.
Data set [7] is described as follows: toxicity in uninfected (toxicity control) or treated mice. Format: in vivo, Random-bred Swiss mice, female. The conditions noted are these: for Avg. Body Wt. on Day 0 / Avg. Body Wt. on Day 7 / Avg. Body Wt. on Day 14 / Avg. Body Wt. on Day 21 / Mortality: No. Dead/Total No. of Mice / mortality at 504 h: uninfected toxicity controls; for mortality at 504 h: mouse, in vivo, ip. How it is done: River Breeding Laboratories, Inc.
cellulose (HPC) at four different
centrations so that a single daily
volume of 0.01 ml/gm of body
The drugs were administered once
for 7 days beginning 4 hours after […]

The subject of data set [8] is adenosine deaminase. Conditions: background statement; cited from earlier work.

The CC50 is the concentration that lowers cell viability or growth by half. In general, mortality refers to the share of the test organisms that died. Low readings indicate a weak lethal effect, high ones a strong lethal effect. Regarding `Nc1ncnc2c1ncn2[C@@H]1C[C@H](CO)[C@@H](O)[C@@H]1O` (relative stereo) [cyclaradine, 9-[α-(2α,3β-Dihydroxy-4α(hydroxymethyl)cyclopentyl)]adenine], the “conversion to deaminated product” value in data set [1] (overnight incubation) is listed as “no conversion to deaminated product was detected”. Moreover, the “antiviral activity against HSV and VV” value in the data set with HSV and VV was “highly significant antiviral activity”. In the data set with HSV and VV (read-out: approximate MED50), the EC50 was around 9 µg/mL (≈ 33.9 µM). For the same molecule, the “deamination by adenosine deaminase” value in [2] was “no detectable deamination”. The “inhibition of enzymatic deamination” value with adenosine deaminase [3] is listed as “did not inhibit”. Also, the CC50 in [4] amounted to 10 µM. In addition, the “Virus Rating (VR)” value in data set [5] was 2.2 and 3.5. In addition, the EC50 in data set [6] (Orthopoxvirus vaccinia, HEp-2, read-out: MED50 (minimum drug dose required for 50% inhibition of virus-induced cpe)) was found to be 9 µg/mL (≈ 33.9 µM). In data set [6] (vaccinia virus, HEp-2 cells, VR ≥ 1.0 definite, 0.5-0.9 marginal to moderate, < 0.5 no apparent antiviral activity), the “Virus Rating (VR)” value is 1.5 and 1.7. Besides, the “weight loss or apparent toxicity” value in data set [7] (750 mg/kg/day (equimolar to ara-A 755.3 mg/kg/day)) was “no significant weight loss or apparent toxicity”. The “lethal toxicity for uninfected animals” value in data set [7] (900 mg/kg/day, qd 1-7, uninfected) is recorded as “apparently not lethally toxic”. Moreover, in data set [7] (C-Ara-A 112.5 mg/kg/day), the “Avg. Body Wt. on Day 0” value is 21.8 gm, the “Avg. Body Wt. on Day 7” value came to 24.5 gm, the “Avg. Body Wt. on Day 14” value came out at 26.5 gm and the “Avg. Body Wt. on Day 21” value was determined as 28.5 gm. For the same molecule, in data set [7] (C-Ara-A 112.5 mg/kg/day), the “Mortality: No. Dead/Total No. of Mice” value is 0/5 and the mortality at 504 h was determined as 0%. Besides, in data set [7] (C-Ara-A 225 mg/kg/day), the “Avg. Body Wt. on Day 0” value was 21.8 gm, the “Avg. Body Wt. on Day 7” value is given as 24.4 gm, the “Avg. Body Wt. on Day 14” value is recorded as 26.8 gm and the “Avg. Body Wt. on Day 21” value is on record as 29.3 gm. Moreover, in data set [7] (C-Ara-A 225 mg/kg/day), the “Mortality: No. Dead/Total No. of Mice” value is 0/5 and the mortality at 504 h amounted to 0%. Moreover, in data set [7] (C-Ara-A 450 mg/kg/day), the “Avg. Body Wt. on Day 0” value is 21.6 gm, the “Avg. Body Wt. on Day 7” value came out at 22.6 gm, the “Avg. Body Wt. on Day 14” value stood at 25.9 gm and the “Avg. Body Wt. on Day 21” value amounted to 28.3 gm. In addition, in [7] (C-Ara-A 450 mg/kg/day), the “Mortality: No. Dead/Total No. of Mice” value was 0/5 and the mortality at 504 h came out at 0%. In data set [7] (C-Ara-A 900 mg/kg/day), the “Avg. Body Wt. on Day 0” value turned out to be 21.8 gm, the “Avg. Body Wt. on Day 7” value was 22.5 gm, the “Avg. Body Wt. on Day 14” value worked out at 25.3 gm and the “Avg. Body Wt. on Day 21” value was 28 gm. Moreover, in data set [7] (C-Ara-A 900 mg/kg/day), the “Mortality: No. Dead/Total No. of Mice” value was 0/5 and the mortality at 504 h is 0%. In addition, in [7] (cyclaradine 112.5 to 450 mg/kg/day, qd 1-7), the “toxicity of dose levels” value is recorded as “non-toxic”. In data set [7] (higher dose levels, mice), the “tolerability compared with ara-A” value is reported as “obviously better tolerated than ara-A”.

As to `Nc1ncnc2c1ncn2[C@@H]1C[C@H](CO)[C@@H](O)[C@H]1O` [Aristeromycin], in [1] (2 hours, 25° C), the “conversion to deaminated product” value is on record as “complete conversion”.

Consider `Nc1ncnc2c1ncn2[C@@H]1O[C@H](CO)[C@@H](O)[C@@H]1O` [ara-A, reference compound], for which the “conversion to deaminated product” value in data set [1] (2 hours, 25° C) is on record as “complete conversion”. Also, in data set [2], the deamination rate is 1 μmole/min/unit of enzyme and the “deamination by adenosine deaminase” value is given as “completely deaminated”. In addition, the 50% cytotoxic concentration (CC50) in [4] was found to be 10 µM. In the data set with adenosine deaminase [8], the “deamination by adenosine deaminase” value is on record as “rapidly deaminated”. Further, in [7] (755.3 mg/kg/day, qd 1-7), the “mortality and weight loss” value is “Significant mortality and severe weight loss”. Moreover, in [7] (Ara-A 125 mg/kg/day), the “Avg. Body Wt. on Day 0” value stood at 21.7 gm, the “Avg. Body Wt. on Day 7” value is on record as 25.4 gm, the “Avg. Body Wt. on Day 14” value is 27.3 gm and the “Avg. Body Wt. on Day 21” value turned out to be 29.5 gm. For the same molecule, in data set [7] (Ara-A 125 mg/kg/day), the “Mortality: No. Dead/Total No. of Mice” value is on record as 0/10 and the mortality at 504 h is 0%. Moreover, in data set [7] (Ara-A 250 mg/kg/day), the “Avg. Body Wt. on Day 0” value stood at 21.7 gm, the “Avg. Body Wt. on Day 7” value stood at 25.1 gm, the “Avg. Body Wt. on Day 14” value turned out to be 26.6 gm and the “Avg. Body Wt. on Day 21” value is reported as 29.1 gm. Moreover, in [7] (Ara-A 250 mg/kg/day), the “Mortality: No. Dead/Total No. of Mice” value is 0/10 and the mortality at 504 h is 0%. The “toxicity of dose levels” value in data set [7] (ara-A 125 to 250 mg/kg/day, qd 1-7) is given as “non-toxic”. Further, the “approx. LD10” value in data set [7] (qd 1-7 schedule, mice) was around 600 mg/kg/day.
